Laboratory results reported in the OPERA property sets (Mansouri et al. 2018).

Conditions: not given
For CC(=O)NC(C)=O, the boiling point was 224 °C, the log10 vapour pressure (mmHg) was -2 and the melting point was 79 °C.
With Nc1ccc(CCc2ccc(N)cc2)cc1 the melting point was 137 °C.
Compound O=[N+]([O-])c1c(F)cc(F)cc1F has a boiling point of 184 °C and a melting point of 3.5 °C.
For CC(C)[C@@H](C)C(=O)O, the boiling point was 192 °C and the melting point was -1.5 °C.
In the case of FC(F)(Cl)C(F)(Cl)Cl, the boiling point was 47.7 °C, the log10 vapour pressure (mmHg) was 2.56 and the melting point was -35 °C. For the same compound, the ready biodegradability was “not readily biodegradable”.
Work on Clc1ccc2c(Cl)ccnc2c1 yielded a melting point of 93 °C.
N#CC1CC2CCC1C2 (stereo not given) gave a melting point of 44 °C.
NC(=O)c1c(F)c(F)c(F)c(F)c1F showed a melting point of 147 °C.
[N-]=[N+]=NC(=O)c1ccccc1 showed a melting point of 32 °C.
For C#CCCCCC, the boiling point was 99.7 °C, the log10 vapour pressure (mmHg) was 1.72 and the melting point was -81 °C.
Compound COc1c(C(C)C)oc2cc3oc(=O)ccc3cc12 has a melting point of 85 °C.
For Nc1nc2ccccc2[nH]1, the melting point was 230 °C.
Compound C=C1N(C)c2ccccc2C1(C)C has a boiling point of 248 °C.
With CCC(=O)O[C@H]1CC[C@H]2[C@@H]3CCC4=CC(=O)CC[C@]4(C)[C@H]3CC[C@]12C the melting point was 120 °C.
CCCCCCCCCCCCCCCCCCCCc1ccccc1 showed a boiling point of 429 °C and a melting point of 44 °C.
In the case of ClCC(Cl)CCl, the boiling point was 157 °C, the log10 Henry constant (atm·m³/mol) was -3.46 and the log10 vapour pressure (mmHg) was 0.567. For the same compound, the melting point was -14.7 °C and the ready biodegradability was “not readily biodegradable”.
In the case of CCOCCl, the boiling point was 83 °C.
Compound COc1c(OC)c(OC(C)=O)c2c(OC)cccc2c1OC(C)=O has a melting point of 69.5 °C.
With C/C=C/CO the boiling point was 121 °C.
In the case of CC(=O)c1ccccc1O, the boiling point was 218 °C and the melting point was 5 °C.
For Clc1ccc(Cl)cc1, the boiling point was 174 °C, the log10 Henry constant (atm·m³/mol) was -2.62 and the log10 Koa was 4.46. It also gave a log10 Koc (L/kg) of 2.65, a log10 vapour pressure (mmHg) of 0.24 and a melting point of 52.1 °C. For the same compound, the ready biodegradability was “not readily biodegradable”.
With CCCCCCCCCCCC1CCCC1 the boiling point was 296 °C and the melting point was -10 °C.
With COc1cc(C)cc(C)c1 the boiling point was 194 °C.
For CCCCCCC(CCCCCC)CCCCCC, the melting point was -28.3 °C.
With c1cc(N(CC2CO2)CC2CO2)ccc1Cc1ccc(N(CC2CO2)CC2CO2)cc1 (stereo not given) the ready biodegradability was “not readily biodegradable”.
Work on CC1=NNC(=O)C1 yielded a melting point of 221 °C.
Work on c1ccc2c(c1)[nH]c1ccccc12 yielded a boiling point of 355 °C, a log10 Henry constant (atm·m³/mol) of -6.94 and a log10 Koc (L/kg) of 3.4. The log10 vapour pressure (mmHg) was -6.12, the melting point was 246 °C and the ready biodegradability was “not readily biodegradable”.
In the case of COCC1CO1 (stereo not given), the boiling point was 113 °C.
Compound COC(=O)[C@]12OC[C@]34[C@H]([C@@H](O)[C@@H]1O)[C@@]1(C)CC(=O)C(O)=C(C)[C@@H]1C[C@H]3OC(=O)[C@H](OC(=O)/C=C(\C)C(C)C)[C@@H]24 has a melting point of 226 °C.
In the case of CCOC(=O)C(C(=O)OCC)C(C)C, the boiling point was 215 °C.
ClCC1CO1 (stereo not given) showed a boiling point of 117 °C, a log10 Koc (L/kg) of 1 and a log10 vapour pressure (mmHg) of 1.22. For the same compound, the melting point was -41.6 °C and the ready biodegradability was “not readily biodegradable”.
With Clc1cccc(-c2c(Cl)ccc(Cl)c2Cl)c1Cl the log10 Koa was 8.8.
In the case of O=S(=O)(O)c1ccc2c(O)cc(S(=O)(=O)O)cc2c1, the ready biodegradability was “readily biodegradable”.
With CN(C(=O)COc1nc2ccccc2s1)c1ccccc1 the log10 vapour pressure (mmHg) was -8.32 and the melting point was 135 °C.
Work on CCCCOB(OCCCC)OCCCC yielded a boiling point of 234 °C and a log10 vapour pressure (mmHg) of -0.279.
With CC(C)(Br)[N+](=O)[O-] the boiling point was 153 °C.
CC(C)(N=C(O)C(Br)C(C)(C)C)c1ccccc1 (stereo not given) gave a melting point of 180 °C.
C1=Cc2ccccc2CC1 gave a boiling point of 206 °C and a melting point of -8 °C.
Compound O=P1(NCCCl)OCCCN1CCCl (stereo not given) has a melting point of 40 °C.
Brc1cc(Br)c(Oc2cc(Br)c(Br)cc2Br)c(Br)c1 showed a logP of 7.82.
In the case of C1CSCCN1, the boiling point was 175 °C.
Compound Cc1ccc(NC2=NCCN2)c(Cl)c1 has a melting point of 149 °C.
CCC(CO)(CO)[N+](=O)[O-] showed a melting point of 57.5 °C.
O=C(O)c1ccnc2ccccc12 gave a melting point of 254 °C.
In the case of CC(C)c1ccc(Br)cc1, the boiling point was 219 °C and the melting point was -22.5 °C.
With O=C(Nc1cccc2ccccc12)c1ccccc1C(=O)[O][Na] the log10 Koc (L/kg) was 3.34.
With CCCCCCCC(=O)OC(=O)CCCCCCC the boiling point was 282 °C and the melting point was -1 °C.
In the case of O=C(O)c1cccc(Br)c1, the log10 vapour pressure (mmHg) was -4.04 and the melting point was 155 °C.
CCCC(=O)N(CSP(=S)(OC)OC)c1ccccc1Cl showed a melting point of 42 °C.
For Nc1ccc(I)cc1, the melting point was 67.5 °C.
With Ic1cn[nH]c1 the melting point was 109 °C.
With NC(=O)c1ccccc1N the boiling point was 300 °C.
Compound Oc1ccc(O)c(Cc2ccccc2)c1 has a melting point of 106 °C.
With NN=C(c1ccccc1)c1ccccc1 the melting point was 96.5 °C.
CCCCCCCCCCCCC(CCCCCCCCCCC)CCCCCCCCCCCC gave a melting point of 9.7 °C.
Compound CCOC(=O)CNc1nc(Cl)nc(NC(C)C)n1 has a melting point of 110 °C.
With CC(C)[C@@H](C)CC[C@@H](C)[C@H]1CC[C@H]2C3=CC[C@H]4C[C@@H](O)CC[C@]4(C)[C@H]3CC[C@]12C the melting point was 146 °C.
Compound CCOP(=S)(OCC)Oc1ncn(-c2ccccc2)n1 has a log10 vapour pressure (mmHg) of -5.54.
Work on CCCCC(C)(C)CCC yielded a boiling point of 158 °C.
For O=[N+]([O-])c1ccc(Oc2c(Cl)cc(Cl)cc2Cl)cc1, the log10 Koc (L/kg) was 3.9, the melting point was 106 °C and the ready biodegradability was “not readily biodegradable”.
CCCC1CCNCC1 showed a boiling point of 173 °C.
Compound CCOC(=O)CCCCCCCCCCCCCCCCC(=O)OCC has a melting point of 54.5 °C.
For OCc1cccc2ccccc12, the boiling point was 304 °C, the log10 Koc (L/kg) was 2.17 and the melting point was 64 °C.
Cc1c(F)c(F)c(COC(=O)C2C(/C=C(\Cl)C(F)(F)F)C2(C)C)c(F)c1F (stereo not given) showed a log10 vapour pressure (mmHg) of -4.22 and a melting point of 44.6 °C.
Work on O=C(Cl)c1cccc(C(=O)Cl)c1 yielded a boiling point of 276 °C and a melting point of 43.5 °C.
Work on Clc1cccc2cccc(Cl)c12 yielded a melting point of 89 °C.
In the case of CCCCCCCCCCCCCCCC, the boiling point was 287 °C, the log10 biodegradation half-life (days) was 1.23 and the log10 vapour pressure (mmHg) was -2.84. For the same compound, the melting point was 18.1 °C and the ready biodegradability was “not readily biodegradable”.
O=C1c2ccccc2C(=O)C1c1ccc(Cl)cc1 showed a melting point of 146 °C.
CC1=C(O)C(=O)CC1 gave a melting point of 106 °C.
In the case of CCOC(=O)CCC(C)=O, the boiling point was 206 °C and the log10 vapour pressure (mmHg) was -0.682.
Oc1cc(O)cc(Cl)c1 showed a melting point of 118 °C.
In the case of CCOC(=O)CC(C)C, the boiling point was 135 °C, the log10 vapour pressure (mmHg) was 0.919 and the melting point was -99.3 °C.
c1ccc(Nc2ccccn2)nc1 showed a boiling point of 308 °C and a melting point of 90.5 °C.
With CN(C)CCc1c[nH]c2ccc(O)cc12 the melting point was 146 °C.
For N#CCCCBr, the boiling point was 206 °C.
CCCC(C)c1ccccc1 (stereo not given) showed a boiling point of 199 °C.
With CN(C)Cc1ccccc1 the boiling point was 181 °C and the ready biodegradability was “not readily biodegradable”.
Compound CNc1ccccc1[N+](=O)[O-] has a melting point of 38 °C.
CCCCCCCOC(=O)CCC showed a boiling point of 226 °C and a melting point of -57.5 °C.
In the case of O=C(O)C(O)C(=O)O, the melting point was 157 °C.
In the case of CC1CC(C)NC(C)(C)C1 (stereo not given), the boiling point was 156 °C.
In the case of CC[Si](CC)(CC)CC, the boiling point was 155 °C and the log10 vapour pressure (mmHg) was 0.699.
In the case of COc1c(N)cccc1[N+](=O)[O-], the ready biodegradability was “not readily biodegradable”.
O=C(O)c1c(F)ccc(F)c1F gave a melting point of 130 °C.
In the case of C#CC(C)(C)O, the boiling point was 104 °C, the log10 Henry constant (atm·m³/mol) was -5.41 and the log10 vapour pressure (mmHg) was 1.2. The melting point was 3 °C.
CC(=O)C(=O)O gave a log10 Henry constant (atm·m³/mol) of -8.49, a log10 vapour pressure (mmHg) of 0.111 and a melting point of 13.8 °C.
Work on COc1cc(NS(=O)(=O)c2ccc(N)cc2)nc(OC)n1 yielded a melting point of 204 °C.
For CC(C)C1(C)N=C(c2nc3ccccc3cc2C(=O)O)NC1=O (stereo not given), the log10 Koc (L/kg) was 1.3, the melting point was 221 °C and the ready biodegradability was “not readily biodegradable”.
With CCCCCCCCCCCCCCCCc1ccccc1 the boiling point was 385 °C, the log10 vapour pressure (mmHg) was -5.45 and the melting point was 27 °C.
With Nc1ccc2ccccc2c1N=Nc1ccccc1 the melting point was 103 °C.
In the case of CNC1(c2ccccc2Cl)CCCCC1=O.Cl (stereo not given), the melting point was 262 °C.
Compound CCOC(Cl)CCl (stereo not given) has a boiling point of 145 °C.
NCCN1CCOCC1 showed a boiling point of 205 °C and a melting point of 25.6 °C.
Compound CCC(N)CC has a boiling point of 89 °C.
Compound CCOc1ccc(C=O)cc1 has a boiling point of 249 °C and a melting point of 13.5 °C.
In the case of CCC(=O)OC, the boiling point was 79.8 °C, the log10 Henry constant (atm·m³/mol) was -3.76 and the log10 vapour pressure (mmHg) was 1.92. For the same compound, the melting point was -87.5 °C.
With BrCOCBr the boiling point was 154 °C and the melting point was -34 °C.
Compound C#CCOC has a boiling point of 63 °C.
Work on CC(=O)Oc1ccc(Br)cc1C(=O)O yielded a melting point of 60 °C.
Cc1cc(O)c(C(C)C)cc1Cl showed a boiling point of 258 °C and a melting point of 63 °C.
For FC(F)(F)Br, the boiling point was -57.8 °C, the log10 Henry constant (atm·m³/mol) was -0.302 and the log10 vapour pressure (mmHg) was 4.09. It also gave a melting point of -172 °C.
In the case of Cc1cnc(Cl)nc1Cl, the boiling point was 235 °C and the melting point was 26 °C.
Work on Cc1ccccc1NCc1ccccc1 yielded a boiling point of 302 °C and a melting point of 60 °C.
Work on C=C(C)OC yielded a boiling point of 35 °C and a log10 vapour pressure (mmHg) of 2.71.

Same assay, conditions: fish
FC(F)(Cl)C(F)(Cl)Cl showed a log10 BCF of 1.7.
Work on ClCC(Cl)CCl yielded a log10 BCF of 1.11 and a log10 biotransformation half-life (days) of -0.53.
Compound Clc1ccc(Cl)cc1 has a log10 BCF of 2.62 and a log10 biotransformation half-life (days) of 1.1.
With c1ccc2c(c1)[nH]c1ccccc12 the log10 BCF was 2.23 and the log10 biotransformation half-life (days) was 0.06.
With Brc1cc(Br)c(Oc2cc(Br)c(Br)cc2Br)c(Br)c1 the log10 BCF was 6.15 and the log10 biotransformation half-life (days) was 2.03.
In the case of O=[N+]([O-])c1ccc(Oc2c(Cl)cc(Cl)cc2Cl)cc1, the log10 BCF was 3.31 and the log10 biotransformation half-life (days) was 0.75.
Clc1cccc2cccc(Cl)c12 showed a log10 BCF of 3.79.
CCCCCCCCCCCCCCCC gave a log10 BCF of 3.7.
Work on CN(C)Cc1ccccc1 yielded a log10 BCF of 1.15.
In the case of CC(C)=C1C=C2CCC3C(C)(C(=O)O)CCCC3(C)C2CC1 (stereo not given), the log10 BCF was 2.17.
